The values below come from patent US4226610A, “Herbicidal compounds, preparation thereof and herbicides containing the same” (Meiji Selka Kaisha, Ltd., priority 1978, dated 1980).

SMILES strings stand for the structures.

For one assay, the system named is water hyacinth. The assay is described as follows: Experiment 4 foliar application to water hyacinths with surfactants. In kind it is in vivo, Eichhornia crassipes Solms. Details: key to Killing index: killing index: 0 = no effect, 5 = death. The text has this:
(§1) The detail of the assessment made in the following Experiments of the invention was as follows:
Four months after treatment, evaluation was made for inhibition of reproduction expressed in terms of symbols ranging from (-) to (+++) where (-) means no reproduction, namely complete suppression of reproduction, (±) remarkable suppression of reproduction; (+) considerable suppression of reproduction; (++) medium supprestion of reproduction; and (+++) no suppression of reproduction.
Water was placed in 20 cm.×30 cm. plastic vessels and a liquid fertilizer was added thereto.
Two water hyacinths were floated in each vessel. 0.1 or 0.2% of each of surfactants listed in Table 6 were added to 0.1 or 0.2% aqueous solutions of DL-AMPB choline. Each solution was sprayed by foliar application in an amount of 100 liter per 10 are. The killing index (0, no effect; 5, death) after 21 days and 3 months and the reproduction-inhibiting effect (-, no reproduction; +++, maximum reproduction) after 3 months were determined.

A further assay concerns weeds and shrubs. The experiment in a line: Weeding effects, general statements. In kind it is in vivo. Conditions: as shown in Experiment 1.
Another assay concerns chestnut. The experiment in a line: Experiment 2 foliar application in Japanese cypress afforested land. It counts as in vivo, Castanea crenata Sieb et Zucc. Conditions: 0.063%; after 30 days. The protocol: as §1
The compounds of the invention and other compounds listed in Table 4. were diluted to prescribed concentrations and sprayed to shrubs by foliar application in a Japanese cypress afforested land in an amount of 150 liter per 10 are.
After 30 days and 3 months, the killing index (0, no effect; 5, death) was determined.
The heights of plants were 50-70 cm. for Japanese cypress, about 50 cm. for chestnut, 50-90 cm. for miyakozasa, about 100 cm. for eulalia and 70-100 cm. for kumaichigo, respectively.

Where [1] appears, read: 0.1%, octylphenyl polyoxyethanol 0.2%, 3 months.

Consider `CP(=O)(O)CCC(N)C(=O)O` (racemic) [DL-AMPB choline], for which the Reproduction-inhibiting effect result is listed as “+++” in the assay on water hyacinth (0.1%, no surfactant, 3 months); “+” with water hyacinth (0.1%, octylphenyl polyoxyethanol 0.1%, 3 months); “±” with water hyacinth (setting [1]); “++” with water hyacinth (0.1%, polyoxyethylene alkylaryl ether 0.1%, 3 months); “±” in the assay with water hyacinth (0.1%, polyoxyethylene alkylaryl ether 0.2%, 3 months); “++” in the assay with water hyacinth (0.1%, polyoxyethylene dodecyl ether 0.1%, 3 months). Further, the Reproduction-inhibiting effect result is reported as “±” in the assay on water hyacinth (0.1%, polyoxyethylene dodecyl ether 0.2%, 3 months); “++” with water hyacinth (0.1%, polyoxyethylene sorbitan monooleate 0.1%, 3 months); “±” with water hyacinth (0.1%, polyoxyethylene sorbitan monooleate 0.2%, 3 months); “++” in the assay with water hyacinth (0.1%, polyoxyethylene sorbitan monostearate 0.1%, 3 months); “±” with water hyacinth (0.1%, polyoxyethylene sorbitan monostearate 0.2%, 3 months); “±” in the assay with water hyacinth (0.2%, no surfactant, 3 months). The Reproduction-inhibiting effect result in the assay on water hyacinth (0.2%, octylphenyl polyoxyethanol 0.1%, 3 months) is reported as “-”; in the assay with water hyacinth (0.2%, octylphenyl polyoxyethanol 0.2%, 3 months), “-”; with water hyacinth (0.2%, polyoxyethylene alkylaryl ether 0.1%, 3 months), “-”; with water hyacinth (0.2%, polyoxyethylene alkylaryl ether 0.2%, 3 months) it was “-”; in the assay on water hyacinth (0.2%, polyoxyethylene dodecyl ether 0.1%, 3 months), “-”; in the assay with water hyacinth (0.2%, polyoxyethylene dodecyl ether 0.2%, 3 months) it was “-”. For the same compound, the Reproduction-inhibiting effect entry in the assay with water hyacinth (0.2%, polyoxyethylene sorbitan monooleate 0.1%, 3 months) is “-”; in the assay on water hyacinth (0.2%, polyoxyethylene sorbitan monooleate 0.2%, 3 months), “-”; in the assay on water hyacinth (0.2%, polyoxyethylene sorbitan monostearate 0.1%, 3 months) it was “-”; in the assay on water hyacinth (0.2%, polyoxyethylene sorbitan monostearate 0.2%, 3 months), “-”. Also, the Killing index was determined as 4.5 in the assay with water hyacinth (setting [1]); 2.5 in the assay with water hyacinth (0.1%, polyoxyethylene alkylaryl ether 0.1%, 21 days); 2.5 in the assay with water hyacinth (0.1%, polyoxyethylene dodecyl ether 0.1%, 21 days); 2.5 in the assay on water hyacinth (0.1%, polyoxyethylene sorbitan monooleate 0.1%, 21 days); 2.5 in the assay with water hyacinth (0.1%, polyoxyethylene sorbitan monostearate 0.1%, 21 days); 4.5 in the assay with water hyacinth (0.2%, no surfactant, 3 months). In addition, the Killing index was determined as 4.5 with water hyacinth (0.2%, polyoxyethylene alkylaryl ether 0.1%, 21 days); 4.5 in the assay with water hyacinth (0.2%, polyoxyethylene dodecyl ether 0.1%, 21 days); 4.5 in the assay on water hyacinth (0.2%, polyoxyethylene sorbitan monooleate 0.1%, 21 days); 4.5 in the assay with water hyacinth (0.2%, polyoxyethylene sorbitan monostearate 0.1%, 21 days).

Turning to `CP(=O)(O)CC[C@H](N)C(=O)O` [L-AMPB choline, L-2-Amino-4-methylphosphino-butanoic acid choline], the “effectiveness relative to monosodium or monodiethylammonium salts of L-2-amino-4-methylphosphinobutanoic acid” value in the assay on weeds and shrubs is on record as “twice effective”. For the same compound, the Killing index with chestnut is 3.5.
